The results in this text go back to ChEMBL document CHEMBL4130375, “Design, synthesis and biological evaluation of 4-amidobenzimidazole acridine derivatives as dual PARP and Topo inhibitors for cancer therapy” (Eur J Med Chem, 2017).

Molecules are shown by their SMILES. pIC50: −log10 of the molar value. Calls of active or inactive are those of the source. No cut-off for these calls is given here.

By pIC50 is commonly meant the negative decadic logarithm of the IC50, by convention in mol/L.

Test [1] deals with Poly [ADP-ribose] polymerase 1 (Homo sapiens, UniProt P09874). Kind of test: Inhibition of PARP1 (unknown origin) assessed as reduction in biotinylated poly(ADP-ribose) incorporation on to histone protein by ELISA based colorimetric assay. On the technique in general: In an ELISA, binding on a coated surface is turned into a signal by an enzyme label.
Chain of Poly [ADP-ribose] polymerase 1 (P09874 whole entry): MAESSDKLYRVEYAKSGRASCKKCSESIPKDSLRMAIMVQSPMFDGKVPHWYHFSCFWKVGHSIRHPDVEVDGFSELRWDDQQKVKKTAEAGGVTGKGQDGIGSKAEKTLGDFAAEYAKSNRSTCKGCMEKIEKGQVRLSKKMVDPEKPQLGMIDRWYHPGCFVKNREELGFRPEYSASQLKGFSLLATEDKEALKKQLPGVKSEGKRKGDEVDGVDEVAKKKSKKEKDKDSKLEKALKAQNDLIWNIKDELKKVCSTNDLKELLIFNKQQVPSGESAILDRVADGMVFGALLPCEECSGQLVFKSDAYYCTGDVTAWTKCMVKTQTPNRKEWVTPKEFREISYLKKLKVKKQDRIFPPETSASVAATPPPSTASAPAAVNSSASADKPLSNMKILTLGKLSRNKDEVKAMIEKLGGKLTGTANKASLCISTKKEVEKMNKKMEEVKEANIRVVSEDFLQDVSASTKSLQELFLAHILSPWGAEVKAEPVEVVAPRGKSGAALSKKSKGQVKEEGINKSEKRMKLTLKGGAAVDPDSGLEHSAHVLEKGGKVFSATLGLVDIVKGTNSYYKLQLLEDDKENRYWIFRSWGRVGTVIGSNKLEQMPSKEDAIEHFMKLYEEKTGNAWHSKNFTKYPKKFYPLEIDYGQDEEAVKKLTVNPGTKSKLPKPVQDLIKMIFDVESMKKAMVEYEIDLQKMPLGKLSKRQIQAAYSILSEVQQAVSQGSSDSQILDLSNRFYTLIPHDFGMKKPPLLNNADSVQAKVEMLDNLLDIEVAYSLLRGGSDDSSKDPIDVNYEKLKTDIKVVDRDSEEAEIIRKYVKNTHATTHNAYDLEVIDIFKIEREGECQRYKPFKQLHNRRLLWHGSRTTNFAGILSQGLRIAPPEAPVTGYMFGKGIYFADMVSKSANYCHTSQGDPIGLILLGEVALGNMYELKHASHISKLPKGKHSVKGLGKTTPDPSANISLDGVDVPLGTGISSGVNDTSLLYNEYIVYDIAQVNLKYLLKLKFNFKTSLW
Test [2] relates to MCF7. Kind of test: cells. The note with it: Homo sapiens, MCF7, 72 h.
Test [3] has as its target DNA topoisomerase 2-alpha (Homo sapiens) (UniProt P11388). Kind of test: Inhibition of human topoisomerase-2 at 100 uM using supercoiled pBR322 DNA as substrate after 10 to 15 mins by ethidium bromide staining based electrophoresis method.
Test [4] deals with HCT-116. Kind of test: Antiproliferative activity against human HCT116 cells expressing topoisomerase-1 after 72 hrs by MTT assay. The following applies: HCT-116, 72 h. The test is classed as functional, cell-based. (In general: Tetrazolium dyes change colour on reduction, which living cells bring about.)
For test [5], the system named is HCC1937. Kind of test: Antiproliferative activity against human HCC1937 cells harboring BRCA1 mutant after 72 hrs by MTT assay. Format: functional, cell-based. The following applies: HCC1937, 72 h.

Chain of DNA topoisomerase 2-alpha (Homo sapiens) (P11388 whole entry): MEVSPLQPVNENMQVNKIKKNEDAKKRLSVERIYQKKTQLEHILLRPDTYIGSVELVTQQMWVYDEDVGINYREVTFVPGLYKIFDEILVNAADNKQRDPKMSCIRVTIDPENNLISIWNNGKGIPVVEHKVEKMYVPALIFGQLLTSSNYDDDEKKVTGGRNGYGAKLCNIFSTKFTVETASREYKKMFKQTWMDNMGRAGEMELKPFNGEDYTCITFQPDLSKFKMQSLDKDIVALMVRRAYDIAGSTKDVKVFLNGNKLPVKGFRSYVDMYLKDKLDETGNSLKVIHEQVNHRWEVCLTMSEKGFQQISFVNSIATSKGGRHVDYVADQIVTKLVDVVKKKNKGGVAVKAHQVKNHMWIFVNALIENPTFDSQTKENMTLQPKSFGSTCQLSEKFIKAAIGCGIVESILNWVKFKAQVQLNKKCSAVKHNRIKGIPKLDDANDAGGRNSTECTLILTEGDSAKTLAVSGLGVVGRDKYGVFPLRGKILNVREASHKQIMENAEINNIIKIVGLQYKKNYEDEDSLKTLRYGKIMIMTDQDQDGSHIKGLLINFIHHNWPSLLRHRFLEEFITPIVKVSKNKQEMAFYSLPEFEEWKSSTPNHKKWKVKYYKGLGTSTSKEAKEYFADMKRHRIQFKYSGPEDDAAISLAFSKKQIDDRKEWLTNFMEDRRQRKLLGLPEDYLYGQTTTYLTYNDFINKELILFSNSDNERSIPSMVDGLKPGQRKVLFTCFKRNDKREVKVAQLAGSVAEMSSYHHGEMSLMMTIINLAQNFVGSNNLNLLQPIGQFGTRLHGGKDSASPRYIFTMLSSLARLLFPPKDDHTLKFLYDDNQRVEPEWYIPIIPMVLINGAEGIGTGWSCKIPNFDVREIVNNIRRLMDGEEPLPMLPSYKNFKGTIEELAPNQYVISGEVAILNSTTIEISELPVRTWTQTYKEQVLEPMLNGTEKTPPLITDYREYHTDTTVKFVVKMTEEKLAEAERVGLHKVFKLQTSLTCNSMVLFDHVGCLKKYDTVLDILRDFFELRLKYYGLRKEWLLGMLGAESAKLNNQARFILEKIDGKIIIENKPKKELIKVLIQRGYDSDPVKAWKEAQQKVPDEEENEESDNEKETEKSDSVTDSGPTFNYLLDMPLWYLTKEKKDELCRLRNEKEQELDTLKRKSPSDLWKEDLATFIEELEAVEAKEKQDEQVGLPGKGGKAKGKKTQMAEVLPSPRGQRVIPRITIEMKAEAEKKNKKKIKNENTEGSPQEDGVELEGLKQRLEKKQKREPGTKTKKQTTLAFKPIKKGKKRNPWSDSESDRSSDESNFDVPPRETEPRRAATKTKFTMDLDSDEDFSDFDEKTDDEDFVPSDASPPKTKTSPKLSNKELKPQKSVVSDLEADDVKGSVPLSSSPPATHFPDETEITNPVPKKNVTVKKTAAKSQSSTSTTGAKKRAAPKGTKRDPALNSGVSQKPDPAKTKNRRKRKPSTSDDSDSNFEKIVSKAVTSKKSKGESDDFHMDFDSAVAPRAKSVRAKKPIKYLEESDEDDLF

As for `NC(=O)c1cccc2[nH]c(-c3cccc(N)c3)nc12`, the values for the pIC50 in test [1] and in test [2] were 7.52 and < 4.30, respectively.

Turning to `NC(=O)c1cccc2[nH]c(-c3cccc(Nc4c5ccccc5nc5ccccc45)c3)nc12`, the negative logarithm of the IC50 (pIC50) in test [1] was 5.86; in test [2], 4.44.

As for `NC(=O)c1cccc2[nH]c(-c3ccccc3Nc3c4ccccc4nc4ccccc34)nc12`, in test [3], the inhibition result was “Active”. Also, the pIC50 is 5.70 in test [1] and < 4.30 in test [2].

Turning to `NC(=O)c1cccc2[nH]c(-c3ccccc3N)nc12`, the negative logarithm of the IC50 (pIC50) in test [1] and in test [2] was < 4.30 each time.

`c1ccc2[nH]c(-c3ccc(Nc4c5ccccc5nc5ccccc45)cc3)nc2c1` showed a pIC50 in test [2] of 4.58.

Turning to `COc1ccc2nc3ccccc3c(Nc3cccc(-c4nc5c(C(N)=O)cccc5[nH]4)c3)c2c1`, the inhibition result in test [3] is “Active”. Besides, the results for the pIC50 in test [1] and in test [2] were 5.94 and 4.34, respectively.

Regarding `COc1ccc2nc3ccccc3c(Nc3ccccc3-c3nc4c(C(N)=O)cccc4[nH]3)c2c1`, the inhibition result in test [3] was “Active”. The negative logarithm of the IC50 (pIC50) in test [1] is 5.77; in test [2], 4.66.

Consider `Cc1cccc2c(Nc3ccc(-c4nc5c(C(N)=O)cccc5[nH]4)cc3)c3ccccc3nc12`, for which the inhibition result in test [3] is “Active”. Further, the negative-log IC50 (pIC50) in test [1] was 6.85; in test [2] it was 4.41.

For `CCCCc1ccc2nc3ccccc3c(Nc3ccc(-c4nc5c(C(N)=O)cccc5[nH]4)cc3)c2c1`, the inhibition entry in test [3] is “Active”. Moreover, the pIC50 in test [1] is 6.89; in test [2], < 4.30.

Turning to `COc1ccc2nc3ccccc3c(Nc3ccc(-c4nc5c(C(N)=O)cccc5[nH]4)cc3)c2c1`, the inhibition result in test [3] is “Active”. For the same compound, the pIC50 in test [1] is 6.60; in test [2] it was 4.42.

In the case of `NC(=O)c1cccc2nc(-c3ccc(N)cc3)[nH]c12`, the figures for the negative logarithm of the IC50 (pIC50) in test [1] and in test [2] were 7.52 and < 4.30, respectively.

Turning to `COc1cccc2c(Nc3ccc(-c4nc5c(C(N)=O)cccc5[nH]4)cc3)c3ccccc3nc12`, the inhibition result in test [3] was “Active”. Further, the results for the negative logarithm of the IC50 (pIC50) in test [1] and in test [2] were 6.72 and 4.88, respectively.

For `COc1cccc2c(Nc3cccc(-c4nc5c(C(N)=O)cccc5[nH]4)c3)c3ccccc3nc12`, in test [3], the inhibition entry is “Active”. Moreover, the pIC50 in test [1] was 6.01; in test [2], 4.59.

Take `NC(=O)c1cccc2[nH]c(-c3ccc(Nc4c5ccccc5nc5ccccc45)cc3)nc12`: the inhibition entry in test [3] is “Active”. In addition, the results for the pIC50 in test [1] and in test [2] were 7.05 and 4.92, respectively.

As to `O=C(c1cc(Cc2n[nH]c(=O)c3ccccc23)ccc1F)N1CCN(C(=O)C2CC2)CC1` [OLAPARIB], the pIC50 in test [4] is 4.82; in test [2] it was 4.44; in test [5], 5.30.

Consider `Cc1ccc2nc3ccccc3c(Nc3cccc(-c4nc5c(C(N)=O)cccc5[nH]4)c3)c2c1`, for which, in test [3], the inhibition result is “Active”. For the same compound, the pIC50 is 6.29 in test [1] and 4.53 in test [2].

Turning to `CCCCc1ccc2nc3ccccc3c(Nc3cccc(-c4nc5c(C(N)=O)cccc5[nH]4)c3)c2c1`, the inhibition result in test [3] was “Active”. For the same compound, the negative logarithm of the IC50 (pIC50) in test [1] is 6.49; in test [2], < 4.30.

Consider `COc1cc(NS(C)(=O)=O)ccc1Nc1c2ccccc2nc2ccccc12` [AMSACRINE], for which the negative-log IC50 (pIC50) in test [4] is 5.41; in test [2] it was 5.06; in test [5] it was 5.11.

On to `Cc1ccc2nc3ccccc3c(Nc3ccc(-c4nc5c(C(N)=O)cccc5[nH]4)cc3)c2c1`, for which the inhibition entry in test [3] is “Active”. Besides, the pIC50 in test [1] was 7.00; in test [2] it was 4.41.
